In PubChem BioAssay (NCI):
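48-hour exposure; five concentrations; linearly interpolated endpoints. At the GI50, growth is halved. The concentration for full growth arrest is given as TGI.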

Key:
Experiment in all cases: DTP human tumour cell line panel, 48 h
OVCAR-8 ovarian = tested on: OVCAR-8 ovarian
786-0 renal = tested on: 786-0 renal
A549 NSCLC = tested on: A549 NSCLC
T-47D breast = tested on: T-47D breast
ACHN renal = tested on: ACHN renal
OVCAR-3 ovarian = tested on: OVCAR-3 ovarian
RXF 393 renal = tested on: RXF 393 renal
HS 578T breast = tested on: HS 578T breast
SF-539 CNS = tested on: SF-539 CNS
IGROV1 ovarian = tested on: IGROV1 ovarian
BT-549 breast = tested on: BT-549 breast

| Structure (SMILES) | TGI (OVCAR-8 ovarian) [µM] | TGI (786-0 renal) [µM] | TGI (A549 NSCLC) [µM] | TGI (T-47D breast) [µM] | TGI (ACHN renal) [µM] | TGI (OVCAR-3 ovarian) [µM] | TGI (RXF 393 renal) [µM] | TGI (HS 578T breast) [µM] | TGI (SF-539 CNS) [µM] | TGI (IGROV1 ovarian) [µM] | TGI (BT-549 breast) [µM] | GI50 (OVCAR-8 ovarian) [nM] | GI50 (T-47D breast) [nM] | GI50 (ACHN renal) [nM] | GI50 (OVCAR-3 ovarian) [nM] | GI50 (RXF 393 renal) [nM] | GI50 (HS 578T breast) [nM] | GI50 (SF-539 CNS) [nM] | GI50 (BT-549 breast) [µM] |
| --- | --- | --- | --- | --- | --- | --- | --- | --- | --- | --- | --- | --- | --- | --- | --- | --- | --- | --- | --- |
| O=C1/C(=C(/Br)I)c2ccccc2-c2ccccc21 | 31.5 | 10.2 | 32 | > 80.4 | 19 | 24.6 | 13.1 | > 100 | 28.7 | 27.7 | 19.1 |  |  |  |  |  |  |  |  |
| CC(=O)OCC1(CNc2nc(N)ncc2C#N)CC(CCc2ccccc2)C1 (stereo not given) | > 100 | > 100 | > 100 | > 100 | > 100 |  | > 100 | > 100 | > 100 | > 100 | > 100 |  |  |  |  |  |  |  |  |
| CC(=O)NCC1OC2COC(c3ccccc3)OC2C2N=C(c3ccccc3)OC12 (stereo not given) | > 100 | > 100 | > 100 | 57.7 | > 100 | > 100 | > 100 | > 100 | > 100 |  | > 100 |  |  |  |  |  |  |  |  |
| COc1ccc(-c2cc(-c3ccc(OC)c(OC)c3)nc(SCCCC(=O)NO)n2)cc1 | > 100 |  |  | > 100 | 2.29 | 5.46 | 2.5 | 33 | 3.48 |  | > 100 | 782 | 1420 | 456 | 1690 | 587 | 1910 | 1310 | 3.8 |
| CCC1(O)CC(O)c2c(O)c3c(c(O)c2C1C(=O)OC)C(=O)c1cccc(O)c1C3=O (stereo not given) | 5.88 | 14.3 | 14.2 | 32.8 | 15.1 | 8.63 | 23.5 | 24.5 | 14.8 | 12.1 | 34.8 |  |  |  |  |  |  |  |  |
| C=C(C)C(=O)O[C@H]1CC2(CO)O[C@@H]2CC/C(COC(C)=O)=C/C2OC(=O)C(=C)[C@@H]21 (stereo not given in full) | 49.8 | > 31.6 | > 100 | > 79.2 | > 63.6 | 79.6 | 26.4 | > 100 | > 100 | > 100 | 52.1 |  |  |  |  |  |  |  |  |
| C#Cc1cccc(Nc2ncnc3cc(OCCOC)c(OCCOC)cc23)c1 | > 93.3 | 48 | > 100 | > 100 | 32.2 | > 100 | 34.9 | 86.3 | 81 | 16.9 | 98.7 |  | 4170 |  | 3530 | 3970 |  |  | 33.4 |
| C/C=C\C(CC(=O)NCCc1c[nH]c2ccccc12)CC(=O)OC (stereo not given) | > 100 | > 100 | > 100 | > 100 | > 100 | > 100 | > 100 | > 100 |  | > 100 | > 100 |  |  |  |  |  |  |  |  |
| COc1cccc(OC/C(N=Cc2ccncc2)=N/NC(=O)c2ccncc2)c1 | > 100 | > 100 | > 100 | > 100 | > 100 | > 100 | > 100 | > 100 | > 100 | > 100 | > 100 |  |  |  |  |  |  |  |  |
| C/C(=C\COP(=O)(O)OP(=O)(O)O)CC/C=C(\C)CNc1ccccc1 | > 50 | > 50 | > 50 | > 50 | > 50 |  | > 50 | > 50 | > 50 | > 50 | 44.5 |  |  |  |  |  |  |  |  |
| CCCCCCCCCCC[N+]1(Cc2ccccc2)CC2CCN(Cc3ccccc3)CC2C1 (stereo not given) | 1.5 | 2.21 | 2.43 | 1.37 | 2.43 | 1.28 | 1.95 | 1.57 | 2.45 | 1.78 | 1.4 |  |  |  |  |  |  |  |  |
| CCOC(=O)NC(OCc1ccccc1)(C(=O)OC)C(F)(F)F (stereo not given) | > 100 |  | > 100 | > 100 | > 100 | > 100 | > 100 | > 100 | > 100 | > 100 | > 100 |  |  |  |  |  |  |  |  |
| CCOC(=O)COC1=Nc2cc(OC)c(OC)c3nc(Cl)cc(c23)C1=O | 9.8 | 3.04 | 18.3 | 24 | 3.02 |  | 3.34 | > 20.6 | 3.87 | 5.97 | 3.45 |  |  |  |  |  |  |  |  |
| O=C1/C(=C/C=C/c2ccccc2)CCC1CNc1ccc(Br)cc1 (stereo not given) | > 100 | > 100 | > 100 | > 100 | > 100 | > 100 | > 100 | > 100 | > 100 | > 100 | > 100 |  |  |  |  |  |  |  |  |
| CN1CCCC(OC(=O)c2cc3cc(CCl)ccc3oc2=O)C1 (stereo not given) | > 100 | 58.4 | > 100 | > 100 | 51.1 | 37.8 | 54.6 | 56.6 | > 100 | > 100 | 49.2 |  |  |  |  |  |  |  |  |
| CCOC(=O)c1nc2ccccc2nc1Nc1ccc(F)cc1 | 32 | > 72.2 | > 100 | > 86.1 | > 93.6 | > 100 | 26.7 | > 84.8 | > 58.9 | 44.8 | 73.2 |  |  |  |  |  |  |  |  |
| CN(c1ccc(Cl)cc1)S(=O)(=O)c1ccccc1 | > 100 | > 100 | > 100 | > 100 | > 100 | > 100 | 62.3 | > 100 | > 100 | > 100 | > 100 |  |  |  |  |  |  |  |  |
